Test results reported in patent US6472165B1, “Modulatory binding site in potassium channels for screening and finding new active ingredients” (Arzneimittelwerk Dresden GmbH, priority 1999, dated 2002).

Columns and labels:
r-erg1 = biological target: T1, r-erg1 (Rattus norvegicus, UniProt O08962); assay: Effect of retigabine on cloned potassium channels, patch clamp; type: cell-based; conditions: r-erg1, CHO cells
T1 construct: expressed in transfected cells; host or cells: CHO cells (liposome cDNA transfection)
T1 sequence (O08962 1-1163): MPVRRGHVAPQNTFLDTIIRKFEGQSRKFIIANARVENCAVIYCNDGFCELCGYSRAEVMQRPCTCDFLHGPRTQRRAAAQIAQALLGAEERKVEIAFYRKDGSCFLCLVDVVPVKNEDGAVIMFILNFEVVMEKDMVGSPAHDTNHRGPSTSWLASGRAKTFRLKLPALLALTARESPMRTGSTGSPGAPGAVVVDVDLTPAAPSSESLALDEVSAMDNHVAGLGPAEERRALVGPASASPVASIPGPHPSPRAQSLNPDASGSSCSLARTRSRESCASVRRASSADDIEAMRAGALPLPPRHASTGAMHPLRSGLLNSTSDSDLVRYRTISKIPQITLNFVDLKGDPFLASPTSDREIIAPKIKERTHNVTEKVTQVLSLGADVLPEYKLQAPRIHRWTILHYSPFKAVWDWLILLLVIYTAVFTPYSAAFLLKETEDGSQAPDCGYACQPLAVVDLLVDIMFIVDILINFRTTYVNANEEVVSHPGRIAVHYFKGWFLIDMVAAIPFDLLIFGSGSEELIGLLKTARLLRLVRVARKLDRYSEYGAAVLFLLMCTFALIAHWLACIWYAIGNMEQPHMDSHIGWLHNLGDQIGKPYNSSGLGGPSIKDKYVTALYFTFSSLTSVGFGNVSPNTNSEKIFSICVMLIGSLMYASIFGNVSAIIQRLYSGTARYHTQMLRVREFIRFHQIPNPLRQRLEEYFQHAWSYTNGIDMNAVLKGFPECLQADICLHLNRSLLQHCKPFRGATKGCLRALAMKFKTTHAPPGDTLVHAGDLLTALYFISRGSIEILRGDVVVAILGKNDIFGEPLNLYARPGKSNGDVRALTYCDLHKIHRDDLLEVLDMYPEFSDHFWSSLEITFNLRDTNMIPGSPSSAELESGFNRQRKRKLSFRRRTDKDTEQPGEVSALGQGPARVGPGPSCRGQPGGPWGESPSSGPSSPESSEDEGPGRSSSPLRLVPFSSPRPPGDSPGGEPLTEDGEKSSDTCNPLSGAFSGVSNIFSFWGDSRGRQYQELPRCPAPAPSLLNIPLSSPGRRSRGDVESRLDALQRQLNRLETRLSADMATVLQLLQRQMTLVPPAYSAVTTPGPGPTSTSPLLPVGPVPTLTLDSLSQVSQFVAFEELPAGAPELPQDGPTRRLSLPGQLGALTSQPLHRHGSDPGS
Protocol: For the experiments with xenopus oocytes, the experimental amounts known to be successful for transfections i.e. 500 pg to 37 ng, of hereditary information (cRNA) for the channel to be investigated, which is known from the literature, present as clone and replicated by means of a polymerase chain reaction, was applied by pressure injection into the egg cells. After this treatment, the oocytes were placed in a nutrient medium and kept alive. After one week, the egg cells were brought individually into a recording chamber and, using the two-electrode voltage clamp method, investigated electrophysiologically. For this purpose, the egg cells, starting out from a holding potential of −80 mV, were hyperpolarized and depolarized for, in each case, 2 seconds, in 10 mV steps to different membrane potentials between −130 and +30 mV and the resulting membrane current was measured. These experiments were carried out in the presence of a control solution as well as of 1, 10 and 100 μM of retigabine and the current voltage curves obtained were compared. […] In addition, in accordance with a method already described (Rundfeldt, 1999b), retigabine was added at a concentration of 10 μM to cells, which were slightly depolarized (−60 or −50 mV), and the current induced thereby was quantified. The latter method was employed in order to quantify the currents shown in the Table and induced by retigabine. […]

Kv4.3 = biological target: T2, Kv4.3 (Homo sapiens, UniProt Q9UK17); conditions: literature, Wang et al.; cited from earlier work
T2 sequence (Q9UK17 1-655): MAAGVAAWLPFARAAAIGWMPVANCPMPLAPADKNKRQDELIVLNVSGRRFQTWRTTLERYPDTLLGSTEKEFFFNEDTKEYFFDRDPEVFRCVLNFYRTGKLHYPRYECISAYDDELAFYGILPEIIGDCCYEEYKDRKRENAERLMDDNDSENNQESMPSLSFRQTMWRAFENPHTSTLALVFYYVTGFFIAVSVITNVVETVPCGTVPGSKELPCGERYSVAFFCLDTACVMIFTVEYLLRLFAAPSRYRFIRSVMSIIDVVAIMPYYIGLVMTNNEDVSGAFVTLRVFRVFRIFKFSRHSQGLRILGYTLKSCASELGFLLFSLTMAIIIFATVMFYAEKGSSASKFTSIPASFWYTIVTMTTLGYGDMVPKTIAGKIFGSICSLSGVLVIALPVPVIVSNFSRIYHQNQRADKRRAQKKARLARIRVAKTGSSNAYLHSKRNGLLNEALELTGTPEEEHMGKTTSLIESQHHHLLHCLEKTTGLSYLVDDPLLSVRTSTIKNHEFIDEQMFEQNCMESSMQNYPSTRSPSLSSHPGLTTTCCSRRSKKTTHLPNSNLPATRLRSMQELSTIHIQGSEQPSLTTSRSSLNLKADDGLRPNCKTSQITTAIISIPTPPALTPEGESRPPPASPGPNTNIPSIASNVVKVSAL

M channel (=KCNQ2+KCNQ3) = M channel (=KCNQ2+KCNQ3) (Homo sapiens, UniProt O43525+O43526); conditions: literature, Wang et al.; cited from earlier work
KCNQ1 channel = KCNQ1 channel (Homo sapiens, UniProt P51787); conditions: literature, Wang et al.; cited from earlier work
eag1 = biological target: T3, eag1 (Homo sapiens, UniProt O95259); conditions: literature, Wang et al.; cited from earlier work
T3 sequence (O95259 1-989): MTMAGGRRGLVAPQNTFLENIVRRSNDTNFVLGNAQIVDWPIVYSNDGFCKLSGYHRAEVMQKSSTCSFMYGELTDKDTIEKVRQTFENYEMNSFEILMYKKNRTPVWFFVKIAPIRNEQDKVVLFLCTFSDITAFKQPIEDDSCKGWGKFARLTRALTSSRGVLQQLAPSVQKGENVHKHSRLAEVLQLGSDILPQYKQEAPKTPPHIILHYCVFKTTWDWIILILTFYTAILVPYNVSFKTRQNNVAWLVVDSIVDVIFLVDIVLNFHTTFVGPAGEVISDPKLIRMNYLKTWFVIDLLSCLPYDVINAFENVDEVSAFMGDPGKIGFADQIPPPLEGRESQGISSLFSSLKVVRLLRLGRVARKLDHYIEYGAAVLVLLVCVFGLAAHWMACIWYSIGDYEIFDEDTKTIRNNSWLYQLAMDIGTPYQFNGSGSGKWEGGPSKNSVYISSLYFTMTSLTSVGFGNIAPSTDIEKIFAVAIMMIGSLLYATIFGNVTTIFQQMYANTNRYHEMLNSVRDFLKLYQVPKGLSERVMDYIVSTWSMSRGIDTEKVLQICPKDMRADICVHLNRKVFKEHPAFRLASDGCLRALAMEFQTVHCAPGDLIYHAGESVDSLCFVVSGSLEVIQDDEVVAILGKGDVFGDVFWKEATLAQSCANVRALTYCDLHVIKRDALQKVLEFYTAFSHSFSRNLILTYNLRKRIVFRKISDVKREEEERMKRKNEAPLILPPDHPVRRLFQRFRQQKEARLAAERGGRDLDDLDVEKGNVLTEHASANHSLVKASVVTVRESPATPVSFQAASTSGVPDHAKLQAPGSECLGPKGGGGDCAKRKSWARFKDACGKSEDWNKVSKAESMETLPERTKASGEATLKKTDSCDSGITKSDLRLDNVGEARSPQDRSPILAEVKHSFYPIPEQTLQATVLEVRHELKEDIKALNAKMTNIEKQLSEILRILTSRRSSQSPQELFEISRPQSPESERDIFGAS

Kv1.2 = Kv1.2 (Homo sapiens, UniProt P16389); conditions: literature, Wang et al.; cited from earlier work
Kv1.2, sequence (P16389 whole entry): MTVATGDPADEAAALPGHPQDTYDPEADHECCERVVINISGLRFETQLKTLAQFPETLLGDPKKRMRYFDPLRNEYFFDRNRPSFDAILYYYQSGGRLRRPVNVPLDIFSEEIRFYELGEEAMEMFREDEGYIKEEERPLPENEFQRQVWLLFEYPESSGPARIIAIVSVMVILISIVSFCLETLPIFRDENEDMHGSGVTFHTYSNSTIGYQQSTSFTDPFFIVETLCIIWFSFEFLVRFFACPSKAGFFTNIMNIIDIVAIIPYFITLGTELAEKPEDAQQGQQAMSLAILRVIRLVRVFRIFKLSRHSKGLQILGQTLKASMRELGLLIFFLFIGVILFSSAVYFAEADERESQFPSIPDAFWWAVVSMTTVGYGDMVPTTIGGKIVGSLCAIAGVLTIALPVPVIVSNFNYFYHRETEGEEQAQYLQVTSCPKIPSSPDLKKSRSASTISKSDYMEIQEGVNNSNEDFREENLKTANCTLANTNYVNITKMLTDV

erg1 = erg1 (Homo sapiens, UniProt Q12809); conditions: literature, Wang et al.; cited from earlier work
erg1, sequence (Q12809 whole entry): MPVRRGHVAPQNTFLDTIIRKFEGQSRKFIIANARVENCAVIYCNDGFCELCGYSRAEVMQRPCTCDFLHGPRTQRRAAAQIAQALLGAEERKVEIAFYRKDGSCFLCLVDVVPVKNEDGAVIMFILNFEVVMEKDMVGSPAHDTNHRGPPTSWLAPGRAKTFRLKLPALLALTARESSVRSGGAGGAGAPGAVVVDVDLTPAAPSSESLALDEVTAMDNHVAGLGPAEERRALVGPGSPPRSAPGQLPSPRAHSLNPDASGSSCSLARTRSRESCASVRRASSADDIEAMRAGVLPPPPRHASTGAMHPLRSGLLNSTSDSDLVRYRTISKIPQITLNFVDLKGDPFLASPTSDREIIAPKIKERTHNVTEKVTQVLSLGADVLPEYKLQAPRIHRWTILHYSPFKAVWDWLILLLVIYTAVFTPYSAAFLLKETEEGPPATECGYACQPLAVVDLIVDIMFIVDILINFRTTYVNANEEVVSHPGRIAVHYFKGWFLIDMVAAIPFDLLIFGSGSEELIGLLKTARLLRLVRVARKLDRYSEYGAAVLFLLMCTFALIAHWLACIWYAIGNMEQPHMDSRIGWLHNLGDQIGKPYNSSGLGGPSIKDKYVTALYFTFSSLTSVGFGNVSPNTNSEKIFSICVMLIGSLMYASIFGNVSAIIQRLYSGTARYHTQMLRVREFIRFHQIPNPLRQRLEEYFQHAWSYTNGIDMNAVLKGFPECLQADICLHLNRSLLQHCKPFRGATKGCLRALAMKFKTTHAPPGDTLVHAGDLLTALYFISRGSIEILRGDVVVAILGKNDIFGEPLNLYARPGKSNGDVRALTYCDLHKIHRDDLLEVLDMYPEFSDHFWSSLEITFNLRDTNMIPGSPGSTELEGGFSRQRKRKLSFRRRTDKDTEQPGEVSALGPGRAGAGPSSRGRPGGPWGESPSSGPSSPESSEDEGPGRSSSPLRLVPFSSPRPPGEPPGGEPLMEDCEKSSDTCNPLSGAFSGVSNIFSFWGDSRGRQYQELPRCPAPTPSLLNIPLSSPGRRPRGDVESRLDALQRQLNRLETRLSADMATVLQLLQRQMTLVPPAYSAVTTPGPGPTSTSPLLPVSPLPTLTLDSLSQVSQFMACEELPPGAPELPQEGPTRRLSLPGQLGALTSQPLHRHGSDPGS

elk1 = conditions: literature, Wang et al.; cited from earlier work
erg3 = biological target: T4, erg3 (Homo sapiens, UniProt Q9NS40); conditions: literature, Wang et al.; cited from earlier work
T4 sequence (Q9NS40 1-1196): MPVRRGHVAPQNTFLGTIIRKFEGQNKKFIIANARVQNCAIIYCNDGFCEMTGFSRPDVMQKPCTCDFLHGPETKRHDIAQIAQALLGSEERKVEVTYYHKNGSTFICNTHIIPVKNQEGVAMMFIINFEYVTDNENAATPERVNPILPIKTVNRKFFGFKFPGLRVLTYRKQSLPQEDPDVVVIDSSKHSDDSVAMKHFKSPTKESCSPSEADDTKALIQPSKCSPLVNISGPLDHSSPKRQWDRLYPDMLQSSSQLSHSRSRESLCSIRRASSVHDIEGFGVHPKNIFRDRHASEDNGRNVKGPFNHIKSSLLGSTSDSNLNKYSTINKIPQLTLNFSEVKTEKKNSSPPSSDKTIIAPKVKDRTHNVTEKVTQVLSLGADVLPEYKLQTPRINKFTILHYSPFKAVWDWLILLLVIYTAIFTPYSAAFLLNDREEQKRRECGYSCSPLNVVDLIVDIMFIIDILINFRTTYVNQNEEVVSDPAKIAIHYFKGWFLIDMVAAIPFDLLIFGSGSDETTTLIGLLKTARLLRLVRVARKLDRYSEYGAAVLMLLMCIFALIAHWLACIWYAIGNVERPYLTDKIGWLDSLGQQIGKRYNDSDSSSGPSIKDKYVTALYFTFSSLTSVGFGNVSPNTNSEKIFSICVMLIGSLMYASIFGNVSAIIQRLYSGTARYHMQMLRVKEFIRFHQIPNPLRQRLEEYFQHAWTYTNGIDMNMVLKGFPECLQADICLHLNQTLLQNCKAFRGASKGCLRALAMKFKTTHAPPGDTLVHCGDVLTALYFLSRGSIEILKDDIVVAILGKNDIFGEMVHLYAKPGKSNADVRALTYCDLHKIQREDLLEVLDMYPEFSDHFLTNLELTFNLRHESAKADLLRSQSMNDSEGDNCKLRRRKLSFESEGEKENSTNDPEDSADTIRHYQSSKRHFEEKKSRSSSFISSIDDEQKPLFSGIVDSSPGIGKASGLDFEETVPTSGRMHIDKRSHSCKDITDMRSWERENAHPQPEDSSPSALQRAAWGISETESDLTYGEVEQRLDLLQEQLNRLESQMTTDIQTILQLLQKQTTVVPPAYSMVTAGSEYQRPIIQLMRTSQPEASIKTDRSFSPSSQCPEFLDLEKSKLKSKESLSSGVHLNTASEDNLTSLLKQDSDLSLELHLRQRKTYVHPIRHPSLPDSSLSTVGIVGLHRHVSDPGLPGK

Compound | Effect of 10 μM of Retigabine (r-erg1) | Effect on Kv4.3, with affinity similar to that for the M channel (Kv4.3) | Effect on the M channel (M channel (=KCNQ2+KCNQ3)) | Effect on KCNQ1, with affinity similar to that for the M channel (KCNQ1 channel) | Effect on eag1, with affinity similar to that for the M channel (eag1) | Effect on Kv1.2, with affinity similar to that for the M channel (Kv1.2) | Effect on erg1, with affinity similar to that for the M channel (erg1) | Effect on elk1, with affinity similar to that for the M channel (elk1) | Effect on erg3, with affinity similar to that for the M channel (erg3)
CCOC(=O)Nc1ccc(NCc2ccc(F)cc2)cc1N [retigabine, 2-amino-4-(4-fluorobenzylamino)-1-ethoxycarbonyl-aminobenzene] | No effect |  |  |  |  |  |  |  | 
O=C1c2ccccc2C(Cc2ccncc2)(Cc2ccncc2)c2ccccc21 [XE991] |  | inhibits | block | inhibits |  |  |  |  | 
O=C1N(c2ccccc2)c2ccccc2C1(Cc1ccncc1)Cc1ccncc1 [linopirdine] |  | blocked | blocks | blocked | blocked | blocked | blocked | blocked | blocked
